Where “and” joins values, the source holds several entries; their conditions need not be identical. Identical values can stand only once. Inconclusive results and toxic doses are left out.
System: B6C3F1 mice, B16 melanoma ip, median survival T/C
Assay: NCI In Vivo Anticancer Drug Screen. Data for tumor model B16 Melanoma (intraperitoneal) in B6C3F1 mice
Details: endpoint: median survival time, higher = longer survival
Outline: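 Tumor-bearing mice received test compound; a separate group got vehicle only. Survival was then compared, with results reported as treated over control.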

[1] = dose: 3.12 mg/kg/injection, schedule: Q01DX009 (ip), vehicle: saline
[2] = dose: 6.25 mg/kg/injection, schedule: Q01DX009 (ip), vehicle: saline with Tween-80
[3] = dose: 6.25 mg/kg/injection, schedule: Q01DX009 (ip), vehicle: suspension in saline
[4] = dose: 12.5 mg/kg/injection, schedule: Q01DX009 (ip), vehicle: saline with Tween-80
[5] = dose: 12.5 mg/kg/injection, schedule: Q01DX009 (ip), vehicle: saline
[6] = dose: 12.5 mg/kg/injection, schedule: Q01DX009 (ip), vehicle: suspension in saline
[7] = dose: 25.0 mg/kg/injection, schedule: Q01DX009 (ip), vehicle: saline with Tween-80
[8] = dose: 25.0 mg/kg/injection, schedule: Q01DX009 (ip), vehicle: saline
[9] = dose: 50.0 mg/kg/injection, schedule: Q01DX009 (ip), vehicle: saline with Tween-80
[10] = dose: 50.0 mg/kg/injection, schedule: Q01DX009 (ip), vehicle: saline
[11] = dose: 100.0 mg/kg/injection, schedule: Q01DX009 (ip), vehicle: saline
[12] = dose: 6.25 mg/kg/injection, schedule: Q01DX009 (ip), vehicle: saline
[13] = dose: 25.0 mg/kg/injection, schedule: Q01DX009 (ip), vehicle: Klucel (hydroxypropylcellulose) (HPC)
[14] = dose: 50.0 mg/kg/injection, schedule: Q01DX009 (ip), vehicle: Klucel (hydroxypropylcellulose) (HPC)
[15] = dose: 100.0 mg/kg/injection, schedule: Q01DX009 (ip), vehicle: Klucel (hydroxypropylcellulose) (HPC)
[16] = dose: 200.0 mg/kg/injection, schedule: Q01DX009 (ip), vehicle: saline
[17] = dose: 200.0 mg/kg/injection, schedule: Q01DX009 (ip), vehicle: Klucel (hydroxypropylcellulose) (HPC)
[18] = dose: 400.0 mg/kg/injection, schedule: Q01DX009 (ip), vehicle: Klucel (hydroxypropylcellulose) (HPC)
[19] = dose: 12.5 mg/kg/injection, schedule: Q01DX009 (ip), vehicle: Klucel (hydroxypropylcellulose) (HPC)
[20] = dose: 400.0 mg/kg/injection, schedule: Q01DX009 (ip), vehicle: saline

O=c1n(CC2CO2)c(=O)n(CC2CO2)c(=O)n1CC1CO1 (stereo not drawn)
T/C [1]: 121 % of control
T/C (dose: 5.0 mg/kg/injection, schedule: Q01DX009 (ip), vehicle: saline): 155 % of control
T/C [2]: 171 % of control
T/C [3]: 178 % of control and 152 % of control
T/C (dose: 10.0 mg/kg/injection, schedule: Q01DX009 (ip), vehicle: saline): 186 % of control
T/C [4]: 212 % of control and 153 % of control
T/C [5]: 188 % of control
T/C [6]: 211 % of control and 172 % of control
T/C (dose: 20.0 mg/kg/injection, schedule: Q01DX009 (ip), vehicle: saline): 228 % of control
T/C [7]: 263 % of control and 197 % of control
T/C [8]: 205 % of control and 227 % of control and 170 % of control
T/C (dose: 25.0 mg/kg/injection, schedule: Q01DX009 (ip), vehicle: suspension in saline): 282 % of control and 235 % of control
T/C (dose: 40.0 mg/kg/injection, schedule: Q01DX009 (ip), vehicle: saline): 261 % of control
T/C [9]: 233 % of control
T/C [10]: 234 % of control and 172 % of control
T/C (dose: 50.0 mg/kg/injection, schedule: Q01DX009 (ip), vehicle: suspension in saline): 255 % of control
T/C [11]: 191 % of control

CN(C)/N=N/c1nc[nH]c1C(N)=O
T/C (dose: 25.0 mg/kg/injection, schedule: Q01DX009 (ip), vehicle: distilled water + Tween-80): 104 % of control
T/C [7]: 100 % of control
T/C [9]: 119 % of control
T/C (dose: 60.0 mg/kg/injection, schedule: Q04DX003 (ip), vehicle: carboxymethylcellulose (CMC)): 109 % of control
T/C (dose: 60.0 mg/kg/injection, schedule: Q04DX003 (ip), vehicle: saline): 120 % of control
T/C (dose: 80.0 mg/kg/injection, schedule: Q04DX003 (ip), vehicle: saline): 102 % of control
T/C (dose: 100.0 mg/kg/injection, schedule: Q01DX009 (ip), vehicle: distilled water + Tween-80): 109 % of control
T/C (dose: 120.0 mg/kg/injection, schedule: Q04DX003 (ip), vehicle: carboxymethylcellulose (CMC)): 113 % of control
T/C (dose: 180.0 mg/kg/injection, schedule: Q04DX003 (ip), vehicle: carboxymethylcellulose (CMC)): 118 % of control
T/C (dose: 180.0 mg/kg/injection, schedule: Q04DX003 (ip), vehicle: saline): 120 % of control
T/C (dose: 200.0 mg/kg/injection, schedule: Q01DX009 (ip), vehicle: saline with Tween-80): 93 % of control

COc1cc(C)c2c(c1C=O)Oc1c(c(C)c(O)c3c1C(O)OC3=O)OC2=O (stereo not drawn)
T/C [1]: 94 % of control
T/C [12]: 100 % of control
T/C [5]: 105 % of control
T/C [8]: 98 % of control
T/C [10]: 98 % of control

CC(C)(C)OC(=O)NC(CC(=O)OCc1ccccc1)C(=O)ON1C(=O)CCC1=O (stereo not drawn)
T/C [13]: 93 % of control
T/C [14]: 91 % of control
T/C [15]: 95 % of control

CC(C)(C)OC(=O)NC(CC(=O)O)C(=O)O (stereo not drawn)
T/C [10]: 102 % of control
T/C [11]: 90 % of control
T/C [16]: 96 % of control

CNC(=O)Oc1ccc(S(=O)(=O)c2ccc(OC(=O)NC)cc2)cc1
T/C [2]: 109 % of control
T/C [4]: 95 % of control
T/C [7]: 88 % of control and 98 % of control
T/C [9]: 90 % of control and 96 % of control
T/C (dose: 100.0 mg/kg/injection, schedule: Q01DX009 (ip), vehicle: saline with Tween-80): 86 % of control

CCOC(=O)C(CC(C)C)NC(=O)C(Cc1ccc(N(CCCl)CCCl)cc1)NC(C)=O (stereo not drawn)
T/C (dose: 8.0 mg/kg/injection, schedule: Q01DX009 (ip), vehicle: saline with Tween-80): 105 % of control
T/C (dose: 16.0 mg/kg/injection, schedule: Q01DX009 (ip), vehicle: saline with Tween-80): 102 % of control
T/C (dose: 64.0 mg/kg/injection, schedule: Q01DX009 (ip), vehicle: saline with Tween-80): 160 % of control

CC(=O)C(=O)O.CC(=O)C(=O)O.[NH-]C1CCCCC1[NH-].[Pt+2] (stereo not drawn)
T/C (dose: 3.12 mg/kg/injection, schedule: Q01DX009 (ip), vehicle: other): 122 % of control

C=CC1(C)CCC2C(=CCC3C2(C)CC(O)C(O)C3(C)COC2OC(CO)C(O)C(O)C2O)C1 (stereo not drawn)
T/C (dose: 1.5 mg/kg/injection, schedule: Q01DX009 (ip), vehicle: Klucel (hydroxypropylcellulose) (HPC)): 116 % of control
T/C (dose: 3.0 mg/kg/injection, schedule: Q01DX009 (ip), vehicle: Klucel (hydroxypropylcellulose) (HPC)): 103 % of control
T/C (dose: 6.0 mg/kg/injection, schedule: Q01DX009 (ip), vehicle: Klucel (hydroxypropylcellulose) (HPC)): 113 % of control
T/C (dose: 12.0 mg/kg/injection, schedule: Q01DX009 (ip), vehicle: Klucel (hydroxypropylcellulose) (HPC)): 107 % of control
T/C (dose: 24.0 mg/kg/injection, schedule: Q01DX009 (ip), vehicle: Klucel (hydroxypropylcellulose) (HPC)): 108 % of control

CC(=O)OCC1OC([S-])C(OC(C)=O)C(OC(C)=O)C1OC(C)=O.CC[PH+](CC)CC.CC[PH+](CC)CC.[Au].[Au] (stereo not drawn)
T/C (dose: 0.62 mg/kg/injection, schedule: Q01DX009 (ip), vehicle: Klucel (hydroxypropylcellulose) (HPC)): 110 % of control and 105 % of control
T/C (dose: 1.25 mg/kg/injection, schedule: Q01DX009 (ip), vehicle: Klucel (hydroxypropylcellulose) (HPC)): 109 % of control
T/C (dose: 2.5 mg/kg/injection, schedule: Q01DX009 (ip), vehicle: Klucel (hydroxypropylcellulose) (HPC)): 98 % of control and 103 % of control
T/C (dose: 5.0 mg/kg/injection, schedule: Q01DX009 (ip), vehicle: Klucel (hydroxypropylcellulose) (HPC)): 114 % of control and 97 % of control
T/C (dose: 10.0 mg/kg/injection, schedule: Q01DX009 (ip), vehicle: Klucel (hydroxypropylcellulose) (HPC)): 92 % of control

COC(C(=O)C(O)C(C)O)C1Cc2cc3cc(OC4CC(OC(C)=O)C(OC5CC(O)C(OC)C(C)O5)C(C)O4)cc(O)c3c(O)c2C(=O)C1OC1CC(OC2CC(OC3CC(C)(O)C(OC(=O)C(C)C)C(C)O3)C(O)C(C)O2)C(O)C(C)O1 (stereo not drawn)
T/C (dose: 0.5 mg/kg/injection, schedule: Q01DX009 (ip), vehicle: saline with Tween-80): 158 % of control
T/C (dose: 1.0 mg/kg/injection, schedule: Q01DX009 (ip), vehicle: saline with Tween-80): 170 % of control

CCCNc1ncnc2c1cnn2C
T/C [5]: 91 % of control
T/C [8]: 93 % of control

NC(CSCc1ccccc1)C(=O)Nc1ccc([N+](=O)[O-])cc1 (stereo not drawn)
T/C [15]: 115 % of control
T/C [17]: 111 % of control
T/C [18]: 116 % of control

C=C[Si]12OCCN(CCO1)CCO2
T/C [19]: 112 % of control and 96 % of control
T/C [13]: 95 % of control and 99 % of control
T/C [14]: 101 % of control
T/C [15]: 111 % of control and 95 % of control
T/C [17]: 93 % of control and 104 % of control

Cc1c2cc[n+](CCN3CCCCC3)cc2c(C)c2c1[nH]c1ccc(O)cc12
T/C [3]: 153 % of control
T/C [6]: 204 % of control
T/C [8]: 172 % of control and 189 % of control

CCN(CC)CCNc1ccc(C)c2sc3ccccc3c(=O)c12
T/C [12]: 103 % of control
T/C [5]: 100 % of control
T/C [8]: 104 % of control
T/C [10]: 104 % of control
T/C [11]: 118 % of control

N=c1nc2n(cc1F)[C@@H]1O[C@H](CO)[C@@H](O)[C@@H]1O2
T/C [13]: 111 % of control
T/C [8]: 110 % of control
T/C [14]: 121 % of control
T/C [10]: 112 % of control
T/C [15]: 110 % of control
T/C [11]: 117 % of control and 97 % of control
T/C [17]: 104 % of control
T/C [16]: 124 % of control and 105 % of control
T/C [18]: 117 % of control
T/C [20]: 121 % of control

S=c1nc[nH]c2nc[nH]c12
T/C (dose: 6.25 mg/kg/injection, schedule: Q01DX009 (ip), vehicle: Klucel (hydroxypropylcellulose) (HPC)): 100 % of control
T/C (dose: 7.5 mg/kg/injection, schedule: Q01DX009 (ip), vehicle: Klucel (hydroxypropylcellulose) (HPC)): 97 % of control
T/C [19]: 94 % of control
T/C [13]: 96 % of control

CN(C)C=O
T/C [8]: 99 % of control
T/C [10]: 112 % of control and 100 % of control
T/C [11]: 88 % of control and 96 % of control
T/C [16]: 86 % of control and 93 % of control
T/C [20]: 122 % of control and 98 % of control
T/C (dose: 800.0 mg/kg/injection, schedule: Q01DX009 (ip), vehicle: saline): 108 % of control and 122 % of control
T/C (dose: 1600.0 mg/kg/injection, schedule: Q01DX009 (ip), vehicle: saline): 116 % of control

CCC(C)C(O)C(C)C(=O)C(C)/C=C(\C)CC(C)C1OC(=O)C1C (stereo not drawn)
T/C (dose: 0.25 mg/kg/injection, schedule: Q01DX009 (ip), vehicle: saline + alcohol): 96 % of control
T/C (dose: 0.5 mg/kg/injection, schedule: Q01DX009 (ip), vehicle: saline + alcohol): 98 % of control and 104 % of control
T/C (dose: 1.0 mg/kg/injection, schedule: Q01DX009 (ip), vehicle: saline + alcohol): 99 % of control and 101 % of control
T/C (dose: 2.0 mg/kg/injection, schedule: Q01DX009 (ip), vehicle: saline + alcohol): 96 % of control and 98 % of control

From PubChem BioAssay AID200 (DTP/NCI, 2004)
